Test results from patent publication US20180116960A1, “TREATING FUNGAL INFECTION OF THE NAIL UNIT” (priority 2009, published 2018).
Structures can show the parent of a compound that is named as a salt.

What was measured:
[1] = solubility of terbinafine HCl in solvents; format: physicochemical; conditions: thermodynamic from solid
Experimental: (§1) With 0.1% Tween-80 in water, the solubility of terbinafine HCl in terbinafine HCl-PEG 3350 blend (75/25, W/W) was 4 mg/mL. […] The final pH was 3.0.
(§2) When DMSO is used as the solvent, the solubility of terbinafine HCl was close to 100 mg/mL. […] The solution was made by weighing 100 mg of terbinafine HCl powder in a glass vial and then adding 1 ml of DMSO solvent. The glass vial was sealed and vortexed for 5 minutes with a mini vortexor. The resulting solution was clear.

[2] = stability of terbinafine HCl solutions on standing; format: physicochemical
Experimental: as §1, §2

CN(C/C=C/C#CC(C)(C)C)Cc1cccc2ccccc12 [terbinafine HCl]
solubility at 5 min ([1]; DMSO, organic solvent or mixture): ~100000 µg/mL
solubility ([1]; aqueous buffer, phosphate-buffered saline (PBS 1×, starting pH 7.4), final pH 4.2): 780 µg/mL
solubility ([1]; aqueous with cosolvent or surfactant or cyclodextrin, 0.1% Tween-80 in water, terbinafine HCl in terbinafine HCl-PEG 3350 blend (75/25, W/W), final pH 3.0): 4000 µg/mL
appearance of solution on standing ([2]; 0.1% Tween-80 in water, room temperature, 5 days): clear but turned cloudy
time the solution was stable ([2]; DMSO solution): up to 7 days
concentration of solution on storage ([2]; DMSO solution, after 14 days up to 22 days): remained constant
concentration of solution on storage ([2]; DMSO solution, at 14 days): 90000 µg/mL
